6 compounds from patent US12691186B2, “B7-H3 miniproteins, conjugates, and uses thereof” (priority 2023, dated 2026) can be followed below.

A value given as a limit tells only on which side of the number the result lay.

Data set [1] is described as follows: In vitro metabolic stability, kidney brush border membrane preparations (KBBM). In kind it is in vitro ADME. More on the design: unit not given here. Conditions: mouse kidney brush border membrane preparation, 37° C. Here is the method: (§1) Exemplary miniprotein conjugates were spiked into biological matrices at initial concentration between 1-2 μM. Tested matrices were varied by species (mouse, rat, human) and type (plasma, serum, and kidney brush border membrane preparations tested each from 0.625-100 μg/mL protein content). Tested conditions were incubated with TAs at 37° C. for 4 hours. At collection points of 0, 15, 30, 60, 120, 240 minutes, 50 μL of each condition were quenched by organic solvent (methanol or acetonitrile) or the addition of 4% phosphoric acid solution. Fractions of each quenched timepoint were subsequently assayed for parent TA concentration by high resolution LC-MS. Percent-parent-remaining-time plots were constructed from the ratio of each given time collection to the time-zero parent TA. Percent-parent-remaining in mouse serum and plasma for exemplary miniproteins are recorded in Table 8.

Data set [2] is described as follows: In vitro metabolic stability, plasma. In kind it is in vitro ADME. On the set-up: unit not given here. Conditions: 37° C. The protocol:
as §1

Data set [3] concerns >6,500 different human proteins. Put plainly: Off-target binding, cell microarray platform (Retrogenix Assay) in HEK293 cells. As to conditions: biotin-labeled molecules. Here is the method: To evaluate potential off-target binding, eight biotin-labeled molecules were tested in a cell microarray platform (Charles River Lab, Retrogenix Assay) having >6,500 different human proteins spanning diverse functions and subcellular locations.
Initially, two pools of molecules were tested. Pool #1 consisted of C298, C300, C302, C304, and pool #2 consisted of C306, C308, C310, and C312 at 2 μg/mL for each molecule. To perform this assay, HEK293 cells were plated on a dish and localized spots of cells were transiently over-expressed with a cDNA encoding for one of the >6,500 targets. Included in this library were two isoforms of CD276 (B7-H3) and B7-H3 related proteins (B7-1, B7-2, B7-H1/PD-L1, and B7-H2). The molecule pools were incubated on the fixed, over-expressing cell microarrays (n=2 per protein), and binding was visualized using Alexa Fluor 647 streptavidin fluorescence. All transfection efficiencies exceeded minimum thresholds for the microarray expression targets. Preliminary interactions identified from pooled results were re-spotted in duplicates, and each of the eight compounds were tested individually (n=2) at 2 μg/mL and/or in dose response against these targets as described above to validate the interactions.
All positive control interactions were strong and passed quality control. Specific interactions observed (median SNR≥1) confirmed on-target B7-H3 binding in two different isoforms for each of the eight test molecules. These interactions with the primary target occurred after fixation and in live cells (absence of fixation). No significant additional interactions were confirmed for any test molecules outside of B7-H3, indicating high specificity for the primary target (data not shown).

As to `CC[C@H](C)[C@@H]1NC(=O)[C@H](CCCCN)NC(=O)[C@H](CCC(=O)O)NC(=O)[C@H](CCCC[N+](C)(C)C)NC(=O)[C@H](C)NC(=O)[C@@H](NC(=O)CCOCCOCCOCCOCCNC(=O)CCCC[C@@H]2SC[C@@H]3NC(=O)N[C@@H]32)CSSC[C@@H]2NC(=O)[C@@H]3CCCN3C(=O)[C@H](CC(=O)O)NC(=O)[C@H](CC(=O)O)NC(=O)[C@H](CC(N)=O)NC(=O)[C@H](CC(C)C)NC(=O)[C@H](C)NC(=O)[C@H](CCCCNC)NC(=O)[C@H]([C@@H](C)CC)NC(=O)[C@H](Cc3ccccc3)NC(=O)[C@H](C)NC(=O)[C@H](CCCCNC)NC(=O)[C@H]([C@@H](C)CC)NC(=O)[C@H](CCC(N)=O)NC(=O)[C@H](C)NC(=O)[C@H](Cc3ccc(O)cc3)NC(=O)[C@H]([C@@H](C)O)NC(=O)[C@H](CC(C)C)NC(=O)[C@H](CSSC[C@@H](C(=O)N[C@@H](CO)C(N)=O)NC(=O)[C@H](CC(C)C)NC(=O)[C@H](CCC(=O)O)NC(=O)[C@H](CCCCNC)NC(=O)[C@H](C)NC(=O)[C@H](CCC(=O)O)NC(=O)[C@H](CO)NC(=O)[C@H](CC(C)C)NC(=O)[C@H]([C@@H](C)CC)NC(=O)[C@H](CCC(=O)O)NC(=O)[C@H](CO)NC(=O)[C@H](CO)NC(=O)[C@H](CCC(N)=O)NC2=O)NC(=O)[C@@H]2CCCN2C(=O)[C@H](CC(C)C)NC(=O)[C@H](Cc2c[nH]c3ccccc23)NC(=O)[C@H]([C@@H](C)CC)NC(=O)[C@H]([C@@H](C)CC)NC(=O)[C@H](CCC(=O)O)NC(=O)[C@H](CO)NC(=O)[C@H](CC(C)C)NC(=O)[C@H](C)NC(=O)[C@H](C)NC1=O` [Compound C306], the “In vitro Stability (mouse) - KBBM” value in data set [1] was >12. Besides, the “In vitro Stability (mouse) - Plasma” value in data set [2] is on record as >12. Further, in data set [3], the “background binding to untransfected HEK293 cells” value (from here on “background binding”) is recorded as “low-background binding”.

For `CC[C@H](C)[C@@H]1NC(=O)[C@H](Cc2ccccc2)NC(=O)[C@H](C)NC(=O)[C@H](CCCCNC)NC(=O)[C@H]([C@@H](C)CC)NC(=O)[C@H](CCC(N)=O)NC(=O)[C@H](C)NC(=O)[C@H](Cc2ccc(O)cc2)NC(=O)[C@H]([C@@H](C)O)NC(=O)[C@H](CC(C)C)NC(=O)[C@@H]2CSSC[C@@H](C(=O)N[C@@H](CO)C(N)=O)NC(=O)[C@H](CC(C)C)NC(=O)[C@H](CCC(=O)O)NC(=O)[C@H](CCCCNC)NC(=O)[C@H](C)NC(=O)[C@H](CCC(=O)O)NC(=O)[C@H](CO)NC(=O)[C@H](CC(C)C)NC(=O)[C@H]([C@@H](C)CC)NC(=O)[C@H](CCC(=O)O)NC(=O)[C@H](CO)NC(=O)[C@H](CO)NC(=O)[C@H](CCC(N)=O)NC(=O)[C@H](CSSC[C@H](NC(=O)CCOCCOCCOCCOCCNC(=O)CCCC[C@@H]3SC[C@@H]4NC(=O)N[C@@H]43)C(=O)N[C@@H](C)C(=O)N[C@@H](CCCC[N+](C)(C)C)C(=O)N[C@@H](CCC(=O)O)C(=O)N[C@@H](CCCCN)C(=O)N[C@@H]([C@@H](C)CC)C(=O)N[C@@H](C)C(=O)N[C@@H](C)C(=O)N[C@@H](CC(C)C)C(=O)N[C@@H](CO)C(=O)N[C@@H](CCC(=O)O)C(=O)N[C@@H]([C@@H](C)CC)C(=O)N[C@@H]([C@@H](C)CC)C(=O)N[C@@H](Cc3c[nH]c4ccccc34)C(=O)N[C@@H](CC(C)C)C(=O)N3CCC[C@H]3C(=O)N2)NC(=O)[C@@H]2CCCN2C(=O)[C@H](CC(=O)O)NC(=O)[C@H](CC(=O)O)NC(=O)[C@H](CC(N)=O)NC(=O)[C@H](CC(C)C)NC(=O)[C@H](C)NC(=O)[C@H](C)NC1=O` [Compound C304], the “background binding” value in data set [3] is reported as “low-background binding”.

As for `CC[C@H](C)[C@@H]1NC(=O)[C@H](Cc2ccccc2)NC(=O)[C@H](C)NC(=O)[C@H](CCCCNC)NC(=O)[C@H]([C@@H](C)CC)NC(=O)[C@H](CCC(N)=O)NC(=O)[C@H](C)NC(=O)[C@H](Cc2ccc(O)cc2)NC(=O)[C@H]([C@@H](C)O)NC(=O)[C@H](CC(C)C)NC(=O)[C@@H]2CSSC[C@@H](C(=O)N[C@@H](CO)C(N)=O)NC(=O)[C@H](CC(C)C)NC(=O)[C@H](CCC(=O)O)NC(=O)[C@H](CCCCNC)NC(=O)[C@H](C)NC(=O)[C@H](CCC(=O)O)NC(=O)[C@H](CO)NC(=O)[C@H](CC(C)C)NC(=O)[C@H]([C@@H](C)CC)NC(=O)[C@H](CCC(=O)O)NC(=O)[C@H](CO)NC(=O)[C@H](CO)NC(=O)[C@H](CC(N)=O)NC(=O)[C@H](CSSC[C@H](NC(=O)CCOCCOCCOCCOCCNC(=O)CCCC[C@@H]3SC[C@@H]4NC(=O)N[C@@H]43)C(=O)N[C@@H](C)C(=O)N[C@@H](CCCC[N+](C)(C)C)C(=O)N[C@@H](CCC(=O)O)C(=O)N[C@@H](CCCCN)C(=O)N[C@@H]([C@@H](C)CC)C(=O)N[C@@H](C)C(=O)N[C@@H](C)C(=O)N[C@@H](CC(C)C)C(=O)N[C@@H](CO)C(=O)N[C@@H](CCC(=O)O)C(=O)N[C@@H]([C@@H](C)CC)C(=O)N[C@@H]([C@@H](C)CC)C(=O)N[C@@H](Cc3c[nH]c4ccccc34)C(=O)N[C@@H](CC(C)C)C(=O)N3CCC[C@H]3C(=O)N2)NC(=O)[C@@H]2CCCN2C(=O)[C@H](CC(=O)O)NC(=O)[C@H](CC(=O)O)NC(=O)[C@H](CC(N)=O)NC(=O)[C@H](CC(C)C)NC(=O)[C@H](C)NC(=O)[C@H](C)NC1=O` [Compound C312], in data set [3], the “background binding” value is given as “low-background binding”.

For `CC[C@H](C)[C@@H]1NC(=O)[C@H](Cc2ccccc2)NC(=O)[C@H](C)NC(=O)[C@H](CCCCNC)NC(=O)[C@H]([C@@H](C)CC)NC(=O)[C@H](CCC(N)=O)NC(=O)[C@H](C)NC(=O)[C@H](Cc2ccc(O)cc2)NC(=O)[C@H](CC(N)=O)NC(=O)[C@H](CC(C)C)NC(=O)[C@@H]2CSSC[C@@H](C(=O)N[C@@H](CO)C(N)=O)NC(=O)[C@H](CC(C)C)NC(=O)[C@H](CCC(=O)O)NC(=O)[C@H](CCCCNC)NC(=O)[C@H](C)NC(=O)[C@H](CCC(=O)O)NC(=O)[C@H](CO)NC(=O)[C@H](CC(C)C)NC(=O)[C@H]([C@@H](C)CC)NC(=O)[C@H](CCC(=O)O)NC(=O)[C@H](CO)NC(=O)[C@H](CO)NC(=O)[C@H](CCC(N)=O)NC(=O)[C@H](CSSC[C@H](NC(=O)CCOCCOCCOCCOCCNC(=O)CCCC[C@@H]3SC[C@@H]4NC(=O)N[C@@H]43)C(=O)N[C@@H](C)C(=O)N[C@@H](CCCC[N+](C)(C)C)C(=O)N[C@@H](CCC(=O)O)C(=O)N[C@@H](CCCCN)C(=O)N[C@@H]([C@@H](C)CC)C(=O)N[C@@H](C)C(=O)N[C@@H](C)C(=O)N[C@@H](CC(C)C)C(=O)N[C@@H](CO)C(=O)N[C@@H](CCC(=O)O)C(=O)N[C@@H]([C@@H](C)CC)C(=O)N[C@@H]([C@@H](C)CC)C(=O)N[C@@H](Cc3c[nH]c4ccccc34)C(=O)N[C@@H](CC(C)C)C(=O)N3CCC[C@H]3C(=O)N2)NC(=O)[C@@H]2CCCN2C(=O)[C@H](CC(=O)O)NC(=O)[C@H](CC(=O)O)NC(=O)[C@H](CC(N)=O)NC(=O)[C@H](CC(C)C)NC(=O)[C@H](C)NC(=O)[C@H](C)NC1=O` [Compound C310], the “background binding” value in data set [3] is recorded as “low-background binding”.

`CC[C@H](C)[C@@H]1NC(=O)[C@H](Cc2ccccc2)NC(=O)[C@H](C)NC(=O)[C@H](CCCCN(C)C)NC(=O)[C@H]([C@@H](C)CC)NC(=O)[C@H](CCC(N)=O)NC(=O)[C@H](C)NC(=O)[C@H](Cc2ccc(O)cc2)NC(=O)[C@H]([C@@H](C)O)NC(=O)[C@H](CC(C)C)NC(=O)[C@@H]2CSSC[C@@H](C(=O)N[C@@H](CO)C(N)=O)NC(=O)[C@H](CC(C)C)NC(=O)[C@H](CCC(=O)O)NC(=O)[C@H](CCCCN)NC(=O)[C@H](C)NC(=O)[C@H](CCC(=O)O)NC(=O)[C@H](CO)NC(=O)[C@H](CC(C)C)NC(=O)[C@H]([C@@H](C)CC)NC(=O)[C@H](CCC(=O)O)NC(=O)[C@H](C)NC(=O)[C@H](CO)NC(=O)[C@H](CCC(N)=O)NC(=O)[C@H](CSSC[C@H](NC(=O)CCOCCOCCOCCOCCNC(=O)CCCC[C@@H]3SC[C@@H]4NC(=O)N[C@@H]43)C(=O)N[C@@H](C)C(=O)N[C@@H](CCCNC(=N)N)C(=O)N[C@@H](CCC(=O)O)C(=O)N[C@@H](CCCCN)C(=O)N[C@@H]([C@@H](C)CC)C(=O)N[C@@H](C)C(=O)N[C@@H](C)C(=O)N[C@@H](CC(C)C)C(=O)N[C@@H](CO)C(=O)N[C@@H](CCC(=O)O)C(=O)N[C@@H]([C@@H](C)CC)C(=O)N[C@@H]([C@@H](C)CC)C(=O)N[C@@H](Cc3c[nH]c4ccccc34)C(=O)N[C@@H](CC(C)C)C(=O)N3CCC[C@H]3C(=O)N2)NC(=O)[C@@H]2CCCN2C(=O)[C@H](CC(=O)O)NC(=O)[C@H](CC(=O)O)NC(=O)[C@H](CC(N)=O)NC(=O)[C@H](CC(C)C)NC(=O)[C@H](C)NC(=O)[C@H](C)NC1=O` [Compound C300]: in data set [3], the “background binding” value is “low-background binding”.

Take “C298 (CAXEKIAALSEIIWLPCLTYAQIXAFIAALNDDPCQSSEILSEAKELCS; Biotin-PEG4 N-term, methylated lysines, C-amide; SITE 3 trimethyllysine; SITE 24 dimethyllysine) [Compound C298]”: the “background binding” value in data set [3] is on record as “low-background binding”.
